Our source for the Ki values is patent US6376488B1, “Benzoxazine α-1 adrenergic compounds” (Abbott Laboratories, priority 2000, dated 2002).

A word on the Ki: it is the dissociation constant of the complex between target and ligand, obtained from inhibition or displacement. A lower Ki goes with a stronger hold on the target.

Structures can show the parent of a compound that is named as a salt.

The test concerns the target T1, α1a (bovine) adrenoreceptor (Bos taurus, UniProt P18130).
T1 sequence (P18130 1-466): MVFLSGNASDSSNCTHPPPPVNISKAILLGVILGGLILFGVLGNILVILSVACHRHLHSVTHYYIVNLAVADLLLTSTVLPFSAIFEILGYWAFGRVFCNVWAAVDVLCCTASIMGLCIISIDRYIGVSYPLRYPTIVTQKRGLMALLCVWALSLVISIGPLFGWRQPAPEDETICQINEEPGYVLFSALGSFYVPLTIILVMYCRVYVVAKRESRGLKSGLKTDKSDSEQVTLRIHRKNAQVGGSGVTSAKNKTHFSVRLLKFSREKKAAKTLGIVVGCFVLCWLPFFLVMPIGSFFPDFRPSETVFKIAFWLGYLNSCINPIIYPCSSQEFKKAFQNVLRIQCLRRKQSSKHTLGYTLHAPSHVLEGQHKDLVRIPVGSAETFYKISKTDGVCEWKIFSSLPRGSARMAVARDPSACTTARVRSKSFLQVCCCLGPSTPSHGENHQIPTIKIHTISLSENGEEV
Put plainly: [3H]-prazosin radioligand binding, cloned α1a (bovine) adrenoreceptor in LTK cells. The conditions noted are these: cloned receptor in LTK cell membranes, [3H]prazosin 0.2 nM. On the procedure:
Representative compounds of the invention were evaluated for α adrenoreceptor binding affinity in vitro using [^3H]-prazosin as the radioligand and following four cloned α1, adrenoreceptors expressed in LTK cells: α1a (rat), α1a (bovine), α1b : (hampster), and α1d (rat).
The cDNA clones encoding the α1, adrenoreceptors were obtained from TULCO (Triangle Universities Licensing Consortium, Research Triangle Park, N.C.) and inserted into the eukaryotic expression vector SnaB30. In this vector, expression of the adrenoreceptor gene is under the transcriptional control of an SV40 early promoter. Positive drug selection is provided by a neomycin-resistance gene. Mouse fibroblast cells (LTK) were transfected with the α1 expression plasmids and grown in Dulbecco's modified Eagle's medium (DMEM) containing 10% fetal calf serum and 30 μM G418. Stable G418-resistant parental lines were generated with successful expression of adrenoreceptor protein monitored using radioligand binding techniques. Stable single cell clones derived from the parental lines were screened in adrenoreceptor binding assays to identify clones having high adrenoreceptor density. Roller bottle cultures of the cloned lines were used to provide cell membranes for subsequent adrenoreceptor binding characterization studies. A cell line containing the SnaB30 vector expressing the human erythropoietin gene served as a negative control.
For adrenoreceptor binding assays, large scale membrane preparations were utilized in which 6 million cells were seeded into small (450 cm^2) Coming tissue culture roller bottles. DMEM (200 mL) containing 10% fetal calf serum and 300 μM G418 were added to each roller bottle. A 95% air/5% CO2 gas mixture (sterile) was injected into each roller bottle prior to sealing, and the bottles were then incubated at 37° C. on a roller rack for 5 days. Cells were refed with fresh medium after 3 days in culture.
On the fifth day of culture, growth medium was removed from cells grown in roller bottles, and the cells were washed twice with PBS (Sigma, 120 mM NaCl, 2.7 mM KCl, 10 mM Na2HPO4-NaH2PO4, pH=7.4). Cells were detached from the roller bottles by incubating for 15 minutes at 37° C. in a Tris-EDTA solution (10 mM Tris, 100 mM NaCl, 1 mM EDTA, pH=7.4). The cell suspension from each roller bottle was decanted into tared centrifuge tubes and kept on ice. An aliquot of each cell suspension was generally taken for cell counting. Cells were centrifuged at 3000×G for 5 minutes at 2-4° C., washed with PBS and recentrifuged. The supernatant was decanted, and the pellet was weighed to determine the wet weight of cells. Cells were washed a final time in 40 vol 5 mM Tris-HCl, 5 mM EDTA, pH=7.7 and centrifuged at 40,000×G for 10 minutes (“vol” indicates volume/weight, e.g., a “vol” of 40 would indicate that the one gram of cells were washed with 40 mls of buffer). Cells were homogenized in of 50 mM Tris-HCl, 5 mM EDTA (pH=7.4) (10 mL) and diluted to 40 mL/tube. Homogenates were centrifuged at 40,000×G for 10 minutes. The supernatant was decanted and the pellets rehomogenized in 50 mM Tris-HCl (pH=7.4) and centrifuged as before. The supernatant was decanted and the homogenate was resuspended in 6.25 volumes (per gram wet weight) of 50 mM Tris-HCl and aliquots of the pooled homogenates frozen in liquid N2 and,stored at −70° C. until the time of assay.
Receptor binding assays for α1 adrenoreceptors were performed essentially as described by Greengrass and Bremner (Eur. J. Pharmacol. 55: 323-326 (1979)). […] Following equilibration, bound radioligand was separated from free on GF/B filters (presoaked in 0.5% polyethyleneimine) using ither a Brandel or Packard cell harvester. Radioactivity was determined by standard liquid scintillation techniques. Data were analyzed as previously described (Hancock, A. A., Kyncl, J. J., Martin, Y. C. and DeBemardis, J. F., J. Receptor Res. 8: 23-46 (1988)). The in Table 1.

For the molecule `O=c1[nH]c2c(sc3cccnc32)c(=O)n1CCCN1CCN2c3ccccc3OCC2C1` (single isomer, unassigned; (-)) [Example 2, (−) 3-[3-(1,2,4a,5-tetrahydropyrazino[2,1-c][1,4]benzoxazin-3(4H)-yl)propyl]pyrido[2′,3′:4,5]thieno[3,2-d]pyrimidine-2,4(1H,3H)-dione dihydrochloride], the inhibitory constant (Ki) came to 13.8 nM.
